{"source": "paper PMC9851200", "about": "“Multiparameter phenotypic screening for endogenous TFEB and TFE3 translocation identifies novel chemical series modulating lysosome function” (Autophagy, 2022)", "origin": "cited, not measured here", "set-up_in_all_cases": "method as in original PKIS2 published data", "key": {"[1]": {"target": "T1, kinases (KINOMEscan panel) (Homo sapiens, UniProt Q8IVH8)", "T1 sequence (Q8IVH8 1-894)": "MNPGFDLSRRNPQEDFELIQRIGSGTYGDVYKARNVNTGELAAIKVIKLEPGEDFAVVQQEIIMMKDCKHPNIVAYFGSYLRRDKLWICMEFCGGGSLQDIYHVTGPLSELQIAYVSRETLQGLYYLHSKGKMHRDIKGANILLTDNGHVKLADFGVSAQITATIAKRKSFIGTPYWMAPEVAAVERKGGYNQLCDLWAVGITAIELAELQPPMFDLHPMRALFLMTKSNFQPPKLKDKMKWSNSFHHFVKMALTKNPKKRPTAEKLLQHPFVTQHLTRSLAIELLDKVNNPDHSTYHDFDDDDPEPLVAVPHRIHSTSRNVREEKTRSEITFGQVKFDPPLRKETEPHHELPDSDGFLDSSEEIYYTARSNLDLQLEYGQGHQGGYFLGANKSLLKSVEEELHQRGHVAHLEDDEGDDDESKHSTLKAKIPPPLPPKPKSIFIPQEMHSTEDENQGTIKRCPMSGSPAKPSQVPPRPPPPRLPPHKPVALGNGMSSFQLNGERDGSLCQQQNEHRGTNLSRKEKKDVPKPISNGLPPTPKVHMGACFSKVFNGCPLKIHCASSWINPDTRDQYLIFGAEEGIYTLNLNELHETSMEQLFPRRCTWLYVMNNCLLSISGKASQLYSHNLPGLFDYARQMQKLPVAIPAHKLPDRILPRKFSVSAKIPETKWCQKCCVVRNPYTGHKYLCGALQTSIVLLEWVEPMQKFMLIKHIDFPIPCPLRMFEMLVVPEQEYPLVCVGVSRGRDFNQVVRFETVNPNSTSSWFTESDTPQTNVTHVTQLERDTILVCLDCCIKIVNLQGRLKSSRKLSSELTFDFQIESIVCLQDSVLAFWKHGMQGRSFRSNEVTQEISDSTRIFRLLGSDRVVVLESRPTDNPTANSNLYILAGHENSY", "details": "Published KINOMEscan; ref original PKIS2 published data; cited from earlier work"}, "[2]": {"target": "kinases (KINOMEscan panel) (Homo sapiens, UniProt P09769)", "sequence (P09769 whole entry)": "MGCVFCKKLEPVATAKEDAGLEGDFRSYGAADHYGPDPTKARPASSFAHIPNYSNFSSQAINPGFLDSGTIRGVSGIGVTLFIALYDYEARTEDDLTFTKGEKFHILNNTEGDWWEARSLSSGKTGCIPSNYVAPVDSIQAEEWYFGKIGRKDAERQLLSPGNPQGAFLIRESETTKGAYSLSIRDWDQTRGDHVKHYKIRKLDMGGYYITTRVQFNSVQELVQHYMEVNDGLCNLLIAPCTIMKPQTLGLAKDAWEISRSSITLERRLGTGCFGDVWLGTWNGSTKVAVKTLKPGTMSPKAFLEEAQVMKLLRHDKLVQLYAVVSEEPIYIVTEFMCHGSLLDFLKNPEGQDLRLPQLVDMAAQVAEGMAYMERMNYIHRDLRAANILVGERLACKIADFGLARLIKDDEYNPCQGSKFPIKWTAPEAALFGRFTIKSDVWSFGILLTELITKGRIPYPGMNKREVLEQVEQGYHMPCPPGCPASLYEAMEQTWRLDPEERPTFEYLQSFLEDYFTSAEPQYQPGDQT", "details": "FGR; Published KINOMEscan; ref original PKIS2 published data; cited from earlier work"}, "[3]": {"target": "kinases (KINOMEscan panel) (Homo sapiens, UniProt Q13177)", "sequence (Q13177 whole entry)": "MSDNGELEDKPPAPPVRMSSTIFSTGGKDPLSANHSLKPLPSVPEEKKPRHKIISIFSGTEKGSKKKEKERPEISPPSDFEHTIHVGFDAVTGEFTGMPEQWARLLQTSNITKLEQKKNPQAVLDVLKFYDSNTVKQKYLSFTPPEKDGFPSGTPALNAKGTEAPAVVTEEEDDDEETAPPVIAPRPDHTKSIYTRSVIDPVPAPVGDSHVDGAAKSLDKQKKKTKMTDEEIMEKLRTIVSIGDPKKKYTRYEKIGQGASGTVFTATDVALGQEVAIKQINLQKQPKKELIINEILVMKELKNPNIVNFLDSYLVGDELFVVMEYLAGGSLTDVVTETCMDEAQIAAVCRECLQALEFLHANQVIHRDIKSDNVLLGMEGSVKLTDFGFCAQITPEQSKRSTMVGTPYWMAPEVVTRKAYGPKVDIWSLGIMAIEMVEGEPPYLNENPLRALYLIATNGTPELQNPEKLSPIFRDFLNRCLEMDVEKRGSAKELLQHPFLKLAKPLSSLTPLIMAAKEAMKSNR", "details": "PAK2; Published KINOMEscan; ref original PKIS2 published data; cited from earlier work"}, "[4]": {"target": "kinases (KINOMEscan panel) (Homo sapiens, UniProt Q9UIK4)", "sequence (Q9UIK4 whole entry)": "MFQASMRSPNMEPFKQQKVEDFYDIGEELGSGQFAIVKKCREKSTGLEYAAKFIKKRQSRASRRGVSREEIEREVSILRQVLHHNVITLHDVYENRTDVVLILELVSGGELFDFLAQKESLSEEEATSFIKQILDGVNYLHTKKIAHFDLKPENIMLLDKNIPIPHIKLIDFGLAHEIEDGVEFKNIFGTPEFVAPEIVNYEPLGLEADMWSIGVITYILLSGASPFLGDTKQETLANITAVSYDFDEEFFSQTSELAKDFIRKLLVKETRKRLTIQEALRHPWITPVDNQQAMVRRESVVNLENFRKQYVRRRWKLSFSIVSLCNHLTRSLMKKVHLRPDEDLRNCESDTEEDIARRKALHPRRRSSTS", "details": "kinase DAPK2; Published KINOMEscan; ref original PKIS2 published data; cited from earlier work"}, "[5]": {"target": "kinases (KINOMEscan panel) (Homo sapiens, UniProt Q06187)", "sequence (Q06187 whole entry)": "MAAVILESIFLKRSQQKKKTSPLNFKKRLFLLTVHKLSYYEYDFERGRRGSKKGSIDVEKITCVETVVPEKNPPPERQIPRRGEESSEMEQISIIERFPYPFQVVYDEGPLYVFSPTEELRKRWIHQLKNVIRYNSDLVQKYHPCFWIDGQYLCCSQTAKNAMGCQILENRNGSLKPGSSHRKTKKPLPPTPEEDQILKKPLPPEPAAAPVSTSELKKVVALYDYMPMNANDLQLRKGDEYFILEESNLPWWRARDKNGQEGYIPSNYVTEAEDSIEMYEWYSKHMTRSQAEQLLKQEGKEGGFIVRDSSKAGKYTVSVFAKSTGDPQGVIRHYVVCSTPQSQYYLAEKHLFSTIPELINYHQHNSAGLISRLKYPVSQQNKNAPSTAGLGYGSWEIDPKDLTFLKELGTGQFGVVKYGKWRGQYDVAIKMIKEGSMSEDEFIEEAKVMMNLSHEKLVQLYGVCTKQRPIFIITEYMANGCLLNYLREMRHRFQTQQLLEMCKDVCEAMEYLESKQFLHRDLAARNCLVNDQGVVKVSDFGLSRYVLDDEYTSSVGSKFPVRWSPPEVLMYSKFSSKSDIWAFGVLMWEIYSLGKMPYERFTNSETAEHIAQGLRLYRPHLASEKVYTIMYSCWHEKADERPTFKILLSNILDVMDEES", "details": "kinase BTK; Published KINOMEscan; ref original PKIS2 published data; cited from earlier work"}, "[6]": {"target": "kinases (KINOMEscan panel) (Homo sapiens, UniProt P68400)", "sequence (P68400 whole entry)": "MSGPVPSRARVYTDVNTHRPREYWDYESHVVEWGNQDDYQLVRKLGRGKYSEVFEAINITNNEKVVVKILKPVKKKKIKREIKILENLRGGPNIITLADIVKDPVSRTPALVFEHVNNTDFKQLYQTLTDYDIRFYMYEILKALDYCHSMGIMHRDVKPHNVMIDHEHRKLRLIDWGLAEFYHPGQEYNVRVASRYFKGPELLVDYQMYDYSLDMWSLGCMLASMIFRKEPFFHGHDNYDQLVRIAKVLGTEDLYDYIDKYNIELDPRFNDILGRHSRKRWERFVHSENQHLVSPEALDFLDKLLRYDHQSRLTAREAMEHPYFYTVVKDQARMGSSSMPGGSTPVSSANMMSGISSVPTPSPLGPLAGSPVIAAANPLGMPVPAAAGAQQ", "details": "CSNK2A1; Published KINOMEscan; ref original PKIS2 published data; cited from earlier work"}, "[7]": {"target": "kinases (KINOMEscan panel) (Homo sapiens, UniProt P50750)", "sequence (P50750 whole entry)": "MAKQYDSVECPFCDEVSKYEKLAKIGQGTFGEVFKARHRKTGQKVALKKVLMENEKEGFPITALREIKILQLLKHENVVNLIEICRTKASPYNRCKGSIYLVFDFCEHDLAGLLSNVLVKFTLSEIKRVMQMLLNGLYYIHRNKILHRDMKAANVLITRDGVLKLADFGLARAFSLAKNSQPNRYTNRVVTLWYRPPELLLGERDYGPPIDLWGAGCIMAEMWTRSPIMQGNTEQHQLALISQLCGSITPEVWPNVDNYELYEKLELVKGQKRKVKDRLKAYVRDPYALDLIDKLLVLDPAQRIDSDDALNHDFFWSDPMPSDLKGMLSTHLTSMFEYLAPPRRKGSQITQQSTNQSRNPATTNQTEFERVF", "details": "kinase CDK9; Published KINOMEscan; ref original PKIS2 published data; cited from earlier work"}, "[8]": {"target": "T2, kinases (KINOMEscan panel) (Homo sapiens, UniProt Q6P3R8)", "T2 sequence (Q6P3R8 1-708)": "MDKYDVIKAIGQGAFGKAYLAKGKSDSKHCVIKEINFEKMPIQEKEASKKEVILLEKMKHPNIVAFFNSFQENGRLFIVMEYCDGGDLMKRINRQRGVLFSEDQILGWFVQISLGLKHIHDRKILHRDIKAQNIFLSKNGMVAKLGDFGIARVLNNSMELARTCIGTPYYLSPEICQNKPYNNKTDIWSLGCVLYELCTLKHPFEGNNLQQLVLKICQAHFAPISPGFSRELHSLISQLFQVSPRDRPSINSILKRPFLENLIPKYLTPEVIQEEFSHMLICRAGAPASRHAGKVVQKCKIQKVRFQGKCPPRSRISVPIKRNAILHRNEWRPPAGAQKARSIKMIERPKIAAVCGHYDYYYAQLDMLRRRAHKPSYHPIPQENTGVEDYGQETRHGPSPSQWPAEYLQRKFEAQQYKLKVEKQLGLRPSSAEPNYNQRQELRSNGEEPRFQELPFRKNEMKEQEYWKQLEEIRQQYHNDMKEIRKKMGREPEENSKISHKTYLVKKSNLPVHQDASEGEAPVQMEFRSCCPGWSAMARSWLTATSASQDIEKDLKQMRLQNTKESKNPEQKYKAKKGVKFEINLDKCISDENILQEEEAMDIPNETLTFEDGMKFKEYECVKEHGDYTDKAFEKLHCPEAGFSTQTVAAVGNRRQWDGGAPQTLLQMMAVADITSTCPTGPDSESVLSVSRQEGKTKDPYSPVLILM", "details": "kinase NEK5; Published KINOMEscan; ref original PKIS2 published data; cited from earlier work"}}}
{"smiles": "Cc1cccc(-c2nc(Nc3ccncc3)c3ccccc3n2)n1", "note": "[NK215]", "values": [{"measurement": "KINOMEscan MAP4K3", "setting": "[1]", "value": 0}, {"measurement": "KINOMEscan FGR", "setting": "[2]", "value": 31}, {"measurement": "KINOMEscan PAK2", "setting": "[3]", "value": 0}, {"measurement": "KINOMEscan DAPK2", "setting": "[4]", "value": 7}, {"measurement": "KINOMEscan BTK", "setting": "[5]", "value": 0}, {"measurement": "KINOMEscan CSNK2A1", "setting": "[6]", "value": 0}, {"measurement": "KINOMEscan CDK9", "setting": "[7]", "value": 0}, {"measurement": "KINOMEscan NEK5", "setting": "[8]", "value": 10}]}
